The values that follow come from patent publication US8653062B2, “Compounds as receptor modulators with therapeutic utility” (Allergan, Inc., priority 2009, dated 2014).

A word on the EC50: it is the concentration that produces a half-maximal response.

One experiment deals with T1, human S1P1 receptor (Homo sapiens, UniProt P21453).
T1 construct: expressed in transfected cells; membranes used
T1 sequence (P21453 whole entry): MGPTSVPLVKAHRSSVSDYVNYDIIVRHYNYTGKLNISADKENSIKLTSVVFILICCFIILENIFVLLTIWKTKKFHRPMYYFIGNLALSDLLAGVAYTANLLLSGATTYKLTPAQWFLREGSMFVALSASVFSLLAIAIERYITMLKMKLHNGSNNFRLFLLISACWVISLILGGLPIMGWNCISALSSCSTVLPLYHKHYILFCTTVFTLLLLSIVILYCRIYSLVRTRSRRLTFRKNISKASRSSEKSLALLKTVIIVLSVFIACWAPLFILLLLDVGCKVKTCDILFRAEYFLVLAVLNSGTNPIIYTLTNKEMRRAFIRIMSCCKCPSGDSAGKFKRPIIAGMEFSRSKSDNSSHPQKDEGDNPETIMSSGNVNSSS
As to the kind of experiment: GTP γ35S binding assay for S1P1 activity. Format: biochemical. As to conditions: membranes of cells stably expressing S1P1 receptor, 30 min at 25° C. As to the method: Compounds were synthesized and tested for S1P1 activity using the GTP γ^35S binding assay. These compounds may be assessed for their ability to activate or block activation of the human S1P1 receptor in cells stably expressing the S1P1 receptor.
GTP γ^35S binding was measured in the medium containing (mM) HEPES 25, pH 7.4, MgCl2 10, NaCl 100, dithitothreitol 0.5, digitonin 0.003%, 0.2 nM GTP γ^35S, and 5 μg membrane protein in a volume of 150 μl. Test compounds were included in the concentration range from 0.08 to 5,000 nM unless indicated otherwise. Membranes were incubated with 100 μM 5′-adenylylimmidodiphosphate for 30 min, and subsequently with 10 μM GDP for 10 min on ice. Drug solutions and membrane were mixed, and then reactions were initiated by adding GTP γ^35S and continued for 30 min at 25° C. Reaction mixtures were filtered over Whatman GF/B filters under vacuum, and washed three times with 3 mL of ice-cold buffer (HEPES 25, pH7.4, MgCl2 10 and NaCl 100). Filters were dried and mixed with scintillant, and counted for ^35S activity using a β-counter. Agonist-induced GTP γ^35S binding was obtained by subtracting that in the absence of agonist. Binding data were analyzed using a non-linear regression method. In case of antagonist assay, the reaction mixture contained 10 nM S1P in the presence of test antagonist at concentrations ranging from 0.08 to 5000 nM.
A general note: Binding of GTPγS marks nucleotide exchange on a G protein.
In turn, `O=C(O)C1CN(Cc2ccc(OCCCCCc3ccccc3)c(-n3cccn3)c2)C1` [Compound 25, 1-{4-[(5-phenylpentyl)oxy]-3-(1H-pyrazol-1-yl)benzyl}azetidine-3-carboxylic acid] registered an EC50 of 22 nM. `O=C(O)C1CN(Cc2ccc(OCCCCCc3ccccc3)c(-c3cccs3)c2)C1` [Compound 16, 1-{4-[(5-phenylpentyl)oxy]-3-(2-thienyl)benzyl}azetidine-3-carboxylic acid] had an EC50 of 15 nM.

`O=C(O)C1CN(Cc2ccc(OCCCCCc3ccccc3)c(C3=CCCC3)c2)C1` [Compound 15, 1-{3-cyclopent-1-en-1-yl-4-[(5-phenylpentyl)oxy]benzyl}azetidine-3-carboxylic acid]: a half-maximal response (EC50) required 13 nM. Same read-out and setting: next, `O=C(O)C1CN(Cc2ccc(SCCCCCc3ccccc3)c(-c3cccs3)c2)C1` [Compound 26, 1-{4-[(5-phenylpentyl)thio]-3-(2-thienyl)benzyl}azetidine-3-carboxylic acid]: 182 nM; `O=C(O)C1CC(NCc2ccc(OCCCCCc3ccccc3)c(-c3cccs3)c2)C1` (stereo not drawn) [Compound 28, 3-({4-[(5-phenylpentyl)oxy]-3-(2-thienyl)benzyl}amino)cyclobutanecarboxylic acid]: 15 nM.

The next experiment relates to female C57BL6 mice. As to the kind of experiment: Lymphopenia assay in mice. Format: in vivo. The following applies: after 5 hours, 10 mg/Kg subcutaneously, FIG. 1. The procedure: Test drugs are prepared in a solution containing 3% (w/v) 2-hydroxy propyl β-cyclodextrin (HPBCD) and 1% DMSO to a final concentration of 1 mg/ml, and subcutaneously injected to female C57BL6 mice (CHARLES RIVERS) weighing 20-25 g at the dose of 10 mg/Kg. Blood samples are obtained by puncturing the submandibular skin with a Goldenrod animal lancet at 5, 24, 48, 72, and 96 hrs post drug application. Blood is collected into microvettes (SARSTEDT) containing EDTA tripotassium salt. Lymphocytes in blood samples are counted using a HEMAVET Multispecies Hematology System, HEMAVET HV950FS (Drew Scientific Inc.). (Hale, J. et al Bioorg. & Med. Chem. Lett. 14 (2004) 3351).
A lymphopenia assay in mice; as previously described, was employed to measure the in vivo blood lymphocyte depletion after dosing with 1-{4-[(5-phenylpentyl)oxy]-3-(2-thienyl)benzyl}azetidine-3-carboxylic acid. This S1P1 agonist is useful for S1P-related diseases and exemplified by the lymphopenia in vivo response. […] Lymphocytes in blood samples were counted using a HEMAVET Multispecies Hematology System, HEMAVET HV950FS (Drew Scientific Inc.). […]
With `O=C(O)C1CN(Cc2ccc(OCCCCCc3ccccc3)c(-c3cccs3)c2)C1` [Compound 16, 1-{4-[(5-phenylpentyl)oxy]-3-(2-thienyl)benzyl}azetidine-3-carboxylic acid], the “lymphocyte count (number of lymphocytes 10^3/μL blood)” value is < 1 10^3/μL blood.
